The data set deals with pancreatic enzymes. In words: Stability in simulated small intestine (pancreatic hydrolysis), released substituent acid detected by HPLC. Type of data set: in vitro ADME. To be noted: incubation in simulated intestinal environment. The text has this:
The compounds analysed are esters between primary or secondary alcohols and fatty acids. In the stomach, the influence of the pH value and its chemical effect is decisive. The stability of the molecules there depends mainly on the nature of the bond. This is the same for all the molecules analysed. […] In contrast, hydrolysis in the small intestine is enzymatically catalysed and the stability can vary greatly between the molecules studied. The work on stability was therefore focussed on pancreatic hydrolysis.
The synthesised ester compounds consisted of a fructooligosaccharide scaffold of the inulin or levan type, to which substituent molecules were bound via an ester bond. Organic acids, predominantly butyric acid, and also propionic acid, acetic acid, succinic acid and benzoic acid served as substituents. The study consisted of incubating the substances in a simulated intestinal environment, followed by the detection of the substituent acid present and, if applicable, released by means of HPLC. Tributyrin was used as a positive control according to the literature.

`CCCC(=O)OCC(COC(=O)CCC)OC(=O)CCC` [Tributyrin]: the “stability under the test conditions of the simulated small intestine” value is listed as “largely hydrolysed”.

(Values after EP4667500A1, “FRUCTOOLIGOSACCHARIDE DERIVATIVES AND USES THEREOF” (Biopract GmbH, priority 2024, dated 2025).)
